Source: patent US11479556B1, “Bifunctional compounds for degrading BTK via ubiquitin proteosome pathway” (NURIX THERAPEUTICS, INC., priority 2018, dated 2022)

Columns and labels:
BTK = biological target: T1, BTK (Homo sapiens, UniProt Q06187); test: Cellular BTK HTRF assay (BTK degradation) in TMD8 cells; assay type: cell-based; conditions: four hours incubation, Total-BTK HTRF relative to DMSO-treated cells
T1 construct: endogenous in cells; host or cells: TMD8 cells
How it was run: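 TMD8 cells were treated with compounds (final DMSO <0.200) for four hours at 37° C, 5% CO2, then lysed for 30 minutes. Total BTK was measured by two-antibody HTRF, taking the 665/620 nm ratio with background subtracted and expressed relative to DMSO-treated cells. DC50 came from four-parameter nonlinear regression.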

Aiolos = biological target: T2, Aiolos (Homo sapiens, UniProt Q96SW2+Q9UKT9); test: Aiolos degradation flow cytometry assay in human PBMCs (T cells); assay type: cell-based; conditions: 24 hours, T cells (CD3+CD20-), read-out: Aiolos T Cell DC50
T2 construct: Frozen human peripheral blood mononuclear cells (PBMCs) were thawed and treated with DMSO or compound for 24 hours; endogenous in cells; host or cells: human PBMCs (T cells gated CD3+CD20-)
T2 sequence (Q9UKT9 whole entry): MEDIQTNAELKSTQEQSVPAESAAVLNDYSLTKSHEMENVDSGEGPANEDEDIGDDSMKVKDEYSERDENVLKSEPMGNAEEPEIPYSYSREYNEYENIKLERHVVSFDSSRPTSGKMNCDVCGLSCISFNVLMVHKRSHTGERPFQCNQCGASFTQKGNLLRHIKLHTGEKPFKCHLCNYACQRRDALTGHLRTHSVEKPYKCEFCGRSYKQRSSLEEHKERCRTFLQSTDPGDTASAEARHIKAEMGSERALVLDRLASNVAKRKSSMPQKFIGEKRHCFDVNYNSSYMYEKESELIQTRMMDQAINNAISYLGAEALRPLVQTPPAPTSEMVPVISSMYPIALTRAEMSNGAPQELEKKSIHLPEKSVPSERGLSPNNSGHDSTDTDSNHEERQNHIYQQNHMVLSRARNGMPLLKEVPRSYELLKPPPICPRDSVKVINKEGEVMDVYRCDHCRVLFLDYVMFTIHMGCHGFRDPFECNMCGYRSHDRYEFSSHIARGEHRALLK
T2 sequence (Q96SW2 whole entry): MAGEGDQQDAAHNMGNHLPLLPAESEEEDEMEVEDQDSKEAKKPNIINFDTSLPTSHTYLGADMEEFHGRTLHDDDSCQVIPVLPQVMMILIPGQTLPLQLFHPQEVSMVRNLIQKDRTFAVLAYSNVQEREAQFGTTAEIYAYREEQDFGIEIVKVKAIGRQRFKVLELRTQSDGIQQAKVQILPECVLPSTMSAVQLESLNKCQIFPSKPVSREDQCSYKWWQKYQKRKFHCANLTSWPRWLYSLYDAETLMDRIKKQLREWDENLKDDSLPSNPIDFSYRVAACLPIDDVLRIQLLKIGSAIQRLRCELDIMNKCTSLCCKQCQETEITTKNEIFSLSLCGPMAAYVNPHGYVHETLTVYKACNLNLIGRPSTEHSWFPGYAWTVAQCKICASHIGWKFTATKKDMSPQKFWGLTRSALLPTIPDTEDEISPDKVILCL
T2 sequence (Q16531 whole entry partner): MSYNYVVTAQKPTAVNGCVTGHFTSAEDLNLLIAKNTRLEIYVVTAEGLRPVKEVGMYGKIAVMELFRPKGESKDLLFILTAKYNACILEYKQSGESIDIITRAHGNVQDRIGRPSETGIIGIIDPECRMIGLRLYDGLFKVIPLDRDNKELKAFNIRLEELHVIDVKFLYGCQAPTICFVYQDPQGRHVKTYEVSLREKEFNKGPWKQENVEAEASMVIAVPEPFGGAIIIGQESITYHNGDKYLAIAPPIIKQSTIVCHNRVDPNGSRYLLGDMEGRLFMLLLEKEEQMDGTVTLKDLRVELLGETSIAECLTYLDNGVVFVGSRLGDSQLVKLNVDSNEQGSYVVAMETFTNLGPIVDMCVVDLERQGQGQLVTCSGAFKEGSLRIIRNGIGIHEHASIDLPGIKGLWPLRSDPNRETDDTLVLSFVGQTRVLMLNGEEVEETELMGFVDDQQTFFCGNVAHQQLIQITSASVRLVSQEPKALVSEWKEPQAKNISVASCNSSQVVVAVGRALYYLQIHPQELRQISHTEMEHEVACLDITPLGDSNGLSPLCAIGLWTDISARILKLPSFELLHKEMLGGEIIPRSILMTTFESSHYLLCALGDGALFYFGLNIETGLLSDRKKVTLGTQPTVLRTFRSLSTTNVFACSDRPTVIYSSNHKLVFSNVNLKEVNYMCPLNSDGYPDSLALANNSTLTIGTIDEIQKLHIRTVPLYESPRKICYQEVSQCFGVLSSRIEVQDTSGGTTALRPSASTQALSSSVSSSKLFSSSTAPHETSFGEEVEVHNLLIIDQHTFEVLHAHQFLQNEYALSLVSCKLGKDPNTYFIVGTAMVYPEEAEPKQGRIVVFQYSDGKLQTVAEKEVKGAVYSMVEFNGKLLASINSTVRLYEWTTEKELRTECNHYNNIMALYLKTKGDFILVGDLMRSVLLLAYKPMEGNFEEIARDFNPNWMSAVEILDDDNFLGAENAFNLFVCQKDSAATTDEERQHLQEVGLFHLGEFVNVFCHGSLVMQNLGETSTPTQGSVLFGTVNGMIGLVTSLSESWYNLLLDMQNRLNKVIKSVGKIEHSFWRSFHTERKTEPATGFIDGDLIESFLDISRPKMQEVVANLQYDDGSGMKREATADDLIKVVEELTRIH
Description: Example 67: Aiolos Degradation Assay
Frozen human peripheral blood mononuclear cells (PBMCs) were thawed and treated with DMSO or compound for 24 hours and then fixed and permeabilized using a Foxp3/Transcription Factor Fixation/Permeabilization Kit (eBioscience, 00-5523). Cells were stained with fluorophore-conjugated antibodies against CD20 (Biolegend 302330), CD3 (BD Pharmingen 552127), and Aiolos (Biolegend 371106). An additional set of DMSO-treated PBMCs was stained for CD20, CD3, and an AlexaFluor 647-conjugated mouse IgG1 isotype control antibody (Biolegend 400136). Stained cells were analyzed using an Attune NxT Acoustic Focusing Flow Cytometer (Thermo-Fisher A29004), and data was analyzed using FlowJo (v10.5.3) and GraphPad Prism (v7.00) software. Single lymphocytes were gated for B cells (CD20+CD3−) and T cells (CD3+CD20−), and the geometric mean fluorescence intensity (MFI) of Aiolos was calculated for each population. The MFI of the isotype control was calculated for each population and used to quantify background staining. Percent Aiolos degradation was calculated for each compound-treated sample using the following equation: […]
Four-parameter non-linear regressions were performed in GraphPad Prism 7.02 to obtain DC50 values. Aiolos T Cell DC50 values are provided in Table 4, wherein A<10.0 nM, 10.0 nM≤B≤1000 nM, and 1000 nM<C.

T1 sequence (Q06187 whole entry): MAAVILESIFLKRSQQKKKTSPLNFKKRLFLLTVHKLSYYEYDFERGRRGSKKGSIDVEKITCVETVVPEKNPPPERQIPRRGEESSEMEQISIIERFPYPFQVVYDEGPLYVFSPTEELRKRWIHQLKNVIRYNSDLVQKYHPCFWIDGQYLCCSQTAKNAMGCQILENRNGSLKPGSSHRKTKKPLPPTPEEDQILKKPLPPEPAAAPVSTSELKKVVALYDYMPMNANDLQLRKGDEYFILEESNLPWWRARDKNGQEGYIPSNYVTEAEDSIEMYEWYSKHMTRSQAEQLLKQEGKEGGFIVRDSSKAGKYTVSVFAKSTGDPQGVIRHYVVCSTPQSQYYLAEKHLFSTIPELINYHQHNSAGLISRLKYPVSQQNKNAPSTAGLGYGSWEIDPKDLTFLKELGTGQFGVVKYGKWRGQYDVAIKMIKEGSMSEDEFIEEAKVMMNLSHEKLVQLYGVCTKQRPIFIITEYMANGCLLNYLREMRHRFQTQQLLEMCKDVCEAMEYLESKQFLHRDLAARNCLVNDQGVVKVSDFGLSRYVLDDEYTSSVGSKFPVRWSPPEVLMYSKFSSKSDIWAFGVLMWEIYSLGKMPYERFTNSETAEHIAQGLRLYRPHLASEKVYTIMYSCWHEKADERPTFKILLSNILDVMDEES

Structure (SMILES)	DC50 (BTK)	DC50 (Aiolos)
CN1CCN([C@@H]2CCCN(c3cnc(C(N)=O)c(Nc4ccc(C5(C)CCN(C(=O)CCOCCC(=O)Nc6cccc7c6CN(C6CCC(=O)NC6=O)C7=O)CC5)cc4)n3)C2)C1=O (stereo partly drawn) [Compound 14]	> 15 nM	> 1000 nM
CN1CCN([C@@H]2CCCN(c3cnc(C(N)=O)c(Nc4ccc(C5CCN(C(=O)CCOCCNc6cccc7c6C(=O)N(C6CCC(=O)NC6=O)C7=O)CC5)cc4)n3)C2)C1=O (stereo partly drawn) [Compound 25]	5 to 15 nM	< 10 nM
CN1CCN([C@@H]2CCCN(c3cnc(C(N)=O)c(Nc4ccc5c(c4)CCN(C4CN(c6ccc7c(c6)C(=O)N(C6CCC(=O)NC6=O)C7=O)C4)C5)n3)C2)C1=O (stereo partly drawn) [Compound 30]	5 to 15 nM	< 10 nM
Cn1c(-c2ccc(N3CCC(CN4CCC(c5ccc(Nc6nc(N7CCCC8(COC8)C7)cnc6C(N)=O)cc5)CC4)CC3)cc2)nn(C2CCC(=O)NC2=O)c1=O (stereo not drawn) [Compound 178]	5 to 15 nM	
CN1CCN([C@@H]2CCCN(c3cnc(C(N)=O)c(Nc4ccc(C5CCN(CC6CCN(c7ccc(N(C)C8CCC(=O)NC8=O)cn7)CC6)CC5)cc4)n3)C2)C1=O (stereo partly drawn) [Compound 180]	> 15 nM	
CN(c1ccc(N2CCC(CN3CCC(c4ccc(Nc5nc(N6CCCCC6)cnc5C(N)=O)cc4)CC3)CC2)nc1)C1CCC(=O)NC1=O (stereo not drawn) [Compound 181]	5 to 15 nM	
CNC(C)C(=O)N[C@H](C(=O)N1C[C@@H](NC(=O)CCOCCOCCOCCOCCC(=O)N2CCC(c3ccc(Nc4nc(N5CCC[C@@H](N6CCN(C)C6=O)C5)cnc4C(N)=O)cc3)CC2)C[C@H]1C(=O)N[C@@H]1CCCc2ccccc21)C1CCCCC1 (stereo partly drawn) [Compound 183]	> 15 nM	
CN1CCN([C@@H]2CCCN(c3cnc(C(N)=O)c(Nc4ccc(C5CCN(C(=O)CNc6cccc7c6C(=O)N(C6CCC(=O)NC6=O)C7=O)CC5)cc4)n3)C2)C1=O (stereo partly drawn) [Compound 184]	5 to 15 nM	
NC(=O)c1ncc(N2CCCCC2)nc1Nc1ccc(C2CCN(CC3CCN(c4ccc(CC5CCC(=O)NC5=O)cn4)CC3)CC2)cc1 (stereo not drawn) [Compound 185]	> 15 nM	
Cc1ncsc1-c1ccc(CNC(=O)[C@@H]2C[C@@H](O)CN2C(=O)[C@@H](NC(=O)C2(F)CC2)C(C)(C)C)c(OCCCCCCCC(=O)N2CCC(c3ccc(Nc4nc(N5CCC[C@@H](N6CCN(C)C6=O)C5)cnc4C(N)=O)cc3)CC2)c1 [Compound 186]	> 15 nM	
Cc1ncsc1-c1ccc(CNC(=O)[C@@H]2C[C@@H](O)CN2C(=O)[C@@H](NC(=O)C2(F)CC2)C(C)(C)C)c(OCCCCCC(=O)N2CCC(c3ccc(Nc4nc(N5CCC[C@@H](N6CCN(C)C6=O)C5)cnc4C(N)=O)cc3)CC2)c1 [Compound 187]	> 15 nM	
Cc1ncsc1-c1ccc([C@H](C)NC(=O)[C@@H]2C[C@@H](O)CN2C(=O)[C@@H](NC(=O)CCCCCCCC(=O)N2CCC(c3ccc(Nc4nc(N5CCC[C@@H](N6CCN(C)C6=O)C5)cnc4C(N)=O)cc3)CC2)C(C)(C)C)cc1 [Compound 188]	> 15 nM	
Cc1ncsc1-c1ccc([C@H](C)NC(=O)[C@@H]2C[C@@H](O)CN2C(=O)[C@@H](NC(=O)CCCCCC(=O)N2CCC(c3ccc(Nc4nc(N5CCC[C@@H](N6CCN(C)C6=O)C5)cnc4C(N)=O)cc3)CC2)C(C)(C)C)cc1 [Compound 189]	> 15 nM	
CN1CCN([C@@H]2CCCN(c3cnc(C(N)=O)c(Nc4ccc(C5CCN(CC6CCN(c7ccc(CC8CCC(=O)NC8=O)cn7)CC6)CC5)cc4)n3)C2)C1=O (stereo partly drawn) [Compound 190]	5 to 15 nM	
NC(=O)c1ncc(N2CCCCC2)nc1Nc1ccc(C2CCN(CC3CCN(c4ncc(C(=O)NC5CCC(=O)NC5=O)o4)CC3)CC2)cc1 (stereo not drawn) [Compound 191]	5 to 15 nM	

Results, then the molecule that gave them:

DC50 (BTK)	DC50 (Aiolos)	Structure (SMILES)
< 5 nM	10 to 1000 nM	CN1CCN([C@@H]2CCCN(c3cnc(C(N)=O)c(Nc4ccc(N5CCN(CCCCc6cccc7c6CN(C6CCC(=O)NC6=O)C7=O)CC5)cc4)n3)C2)C1=O (stereo partly drawn) [Compound 17]
< 5 nM	> 1000 nM	CN1CCN([C@@H]2CCCN(c3cnc(C(N)=O)c(Nc4ccc(N5CCC6(CCCN(c7ccc8c(c7)C(=O)N(C7CCC(=O)NC7=O)C8=O)C6)CC5)cc4)n3)C2)C1=O (stereo partly drawn) [Compound 29]
< 5 nM	10 to 1000 nM	CN1CCN([C@@H]2CCCN(c3cnc(C(N)=O)c(Nc4ccc5c(c4)CCN(CC4CCN(c6ccc7c(c6)C(=O)N(C6CCC(=O)NC6=O)C7=O)CC4)C5)n3)C2)C1=O (stereo partly drawn) [Compound 31]
< 5 nM	10 to 1000 nM	CN1CCN([C@@H]2CCCN(c3cnc(C(N)=O)c(Nc4ccc(N5CC6(C5)CN(c5ccc7c(c5)C(=O)N(C5CCC(=O)NC5=O)C7=O)C6)cc4)n3)C2)C1=O (stereo partly drawn) [Compound 34, 3-((4-(6-(2-(2,6-dioxopiperidin-3-yl)-1,3-dioxoisoindolin-5-yl)-2,6-diazaspiro[3.3]heptan-2-yl)phenyl)amino)-5-((R)-3-(3-methyl-2-oxoimidazolidin-1-yl)piperidin-1-yl)pyrazine-2-carboxamide]
< 5 nM	10 to 1000 nM	CN1CCN([C@@H]2CCCN(c3cnc(C(N)=O)c(Nc4ccc(C5CN(C6CCN(c7ccc8c(c7)C(=O)N(C7CCC(=O)NC7=O)C8=O)CC6)C5)cc4)n3)C2)C1=O (stereo partly drawn) [Compound 37]
< 5 nM	10 to 1000 nM	CN1CCN([C@@H]2CCCN(c3cnc(C(N)=O)c(Nc4ccc(N5CCN(C[C@@H]6[C@H]7CN(c8ccc9c(c8)C(=O)N(C8CCC(=O)NC8=O)C9=O)C[C@@H]67)CC5)cc4)n3)C2)C1=O (stereo partly drawn) [Compound 38]
< 5 nM	10 to 1000 nM	CN1CCN([C@@H]2CCCN(c3cnc(C(N)=O)c(Nc4ccc(C5CCN(CC6CCN(c7ccc8c(c7)C(=O)N(C7CCC(=O)NC7=O)C8=O)CC6)CC5)cc4)n3)C2)C1=O (stereo partly drawn) [Compound 51]
< 5 nM	10 to 1000 nM	CN1CCN([C@@H]2CCCN(c3cnc(C(N)=O)c(Nc4ccc(C5CCN(C6CN(c7ccc8c(c7)C(=O)N(C7CCC(=O)NC7=O)C8=O)C6)CC5)cc4)n3)C2)C1=O (stereo partly drawn) [Compound 53]
< 5 nM		NC(=O)c1ncc(N2CCC[C@@H](CO)C2)nc1Nc1ccc(C2CCN(C[C@H]3CCN(c4ccc5c(c4)C(=O)N(C4CCC(=O)NC4=O)C5=O)C3)CC2)cc1 (stereo partly drawn) [Compound 174]
< 5 nM		NC(=O)c1ncc(N2CCC(F)(F)C(CO)C2)nc1Nc1ccc(C2CCN(C[C@H]3CCN(c4ccc5c(c4)C(=O)N(C4CCC(=O)NC4=O)C5=O)C3)CC2)cc1 (stereo partly drawn) [Compound 175]
< 5 nM		NC(=O)c1ncc(N2CCC3(COC3)C2)nc1Nc1ccc(C2CCN(C[C@H]3CCN(c4ccc5c(c4)C(=O)N(C4CCC(=O)NC4=O)C5=O)C3)CC2)cc1 (stereo partly drawn) [Compound 176]
< 5 nM		NC(=O)c1ncc(N2CCCC3(COC3)C2)nc1Nc1ccc(C2CCN(CC3CCN(c4ccc5c(=O)n(C6CCC(=O)NC6=O)ccc5c4)CC3)CC2)cc1 (stereo not drawn) [Compound 177]
< 5 nM		Cn1c(=O)n(C2CCC(=O)NC2=O)c2ccc(N3CCC(CN4CCC(c5ccc(Nc6nc(N7CCCCC7)cnc6C(N)=O)cc5)CC4)CC3)cc21 (stereo not drawn) [Compound 179]
< 5 nM		NC(=O)c1ncc(N2CCCCC2)nc1Nc1ccc(C2CCN(CC3CCN(c4ccc(C(=O)NC5CCC(=O)NC5=O)nc4)CC3)CC2)cc1 (stereo not drawn) [Compound 182]
< 5 nM		CN1CCN([C@@H]2CCCN(c3cnc(C(N)=O)c(Nc4ccc(C5CCN(CC6CCN(c7ncc(C(=O)NC8CCC(=O)NC8=O)o7)CC6)CC5)cc4)n3)C2)C1=O (stereo partly drawn) [Compound 192]
< 5 nM		NC(=O)c1ncc(N2CCC[C@@H](CO)C2)nc1Nc1ccc(C2CCN(C[C@@H]3CCN(c4ccc5c(c4)C(=O)N(C4CCC(=O)NC4=O)C5=O)C3)CC2)cc1 (stereo partly drawn) [Compound 193]
